ChEMBL document CHEMBL5236585, “Design, synthesis and antifungal activities of novel triazole derivatives with selenium-containing hydrophobic side chains” (Bioorg Med Chem Lett, 2022)
≈ marks a conversion by molar mass, not a printed value.

Legend:
Candida albicans [1] = assay: Antifungal activity against Candida albicans ATCC SC5314 assessed as inhibition of fungal growth by microdilution method; type: functional
Candida tropicalis = assay: Antifungal activity against Candida tropicalis CGMCC 2.3739 assessed as inhibition of fungal growth by microdilution method; type: functional
Candida parapsilosis = assay: Antifungal activity against Candida parapsilosis 22019 assessed as inhibition of fungal growth by microdilution method; type: functional; conditions: Lodderomyces parapsilosis
Cryptococcus neoformans = assay: Antifungal activity against Cryptococcus neoformans CGMCC 2.3161 assessed as inhibition of fungal growth by microdilution method; type: functional
Candida albicans [2] = assay: Antifungal activity against Candida albicans CPCC 400616 assessed as inhibition of fungal growth by microdilution method; type: functional
Nakaseomyces glabratus = assay: Antifungal activity against clinical isolate Candida glabrata assessed as inhibition of fungal growth by microdilution method; type: functional
Aspergillus fumigatus = assay: Antifungal activity against Aspergillus fumigatus CGMCC 3.7795 assessed as inhibition of fungal growth by microdilution method; type: functional
Pichia kudriavzevii = assay: Antifungal activity against Candida krusei AS 2.1045 assessed as inhibition of fungal growth by microdilution method; type: functional
Candida albicans [3] = assay: Antifungal activity against Candida albicans ATCC SC5314 assessed as inhibition of fungal growth; type: functional
Candida albicans [4] = assay: Antifungal activity against Candida albicans CPCC 400616 assessed as inhibition of fungal growth; type: functional
HL-60 = assay: Cytotoxicity against human HL-60 cells assessed as inhibition of cell growth by MTT assay; type: functional, cell-based
[5] = target: T1, Lanosterol 14-alpha demethylase (Candida albicans (strain SC5314 / ATCC MYA-2876) (Yeast), UniProt P10613); assay: Inhibition of CYP51 in Candida albicans SC5314 assessed as ergosterol level at 4 ug/ml by GC-MS analysis (reference value: 98.3 %); design: scale not given: the % may be the effect or the level left; conditions: at 4 µg/mL
[6] = target: T1, Lanosterol 14-alpha demethylase; assay: Inhibition of CYP51 in Candida albicans SC5314 assessed as lanosterol level at 4 ug/ml by GC-MS analysis (reference value: 1.7 %); design: scale not given: the % may be the effect or the level left; conditions: at 4 µg/mL
[7] = target: T1, Lanosterol 14-alpha demethylase; assay: Inhibition of CYP51 in Candida albicans SC5314 assessed as lanosterol level at 2 ug/ml by GC-MS analysis (reference value: 1.7 %); design: scale not given: the % may be the effect or the level left; conditions: at 2 µg/mL
[8] = target: T1, Lanosterol 14-alpha demethylase; assay: Inhibition of CYP51 in Candida albicans SC5314 assessed as ergosterol level at 8 ug/ml by GC-MS analysis (reference value: 98.3 %); design: scale not given: the % may be the effect or the level left; conditions: at 8 µg/mL
MDA-MB-231 = assay: Cytotoxicity against human MDA-MB-231 cells assessed as inhibition of cell growth by MTT assay; type: functional, cell-based
[9] = target: T1, Lanosterol 14-alpha demethylase; assay: Inhibition of CYP51 in Candida albicans SC5314 assessed as obtusifoliol level at 4 ug/ml by GC-MS analysis (reference value: 0 %); design: scale not given: the % may be the effect or the level left; conditions: at 4 µg/mL
[10] = target: T1, Lanosterol 14-alpha demethylase; assay: Inhibition of CYP51 in Candida albicans SC5314 assessed as ergosterol level at 2 ug/ml by GC-MS analysis (reference value: 98.3 %); design: scale not given: the % may be the effect or the level left; conditions: at 2 µg/mL
[11] = target: T1, Lanosterol 14-alpha demethylase; assay: Inhibition of CYP51 in Candida albicans SC5314 assessed as lanosterol level at 8 ug/ml by GC-MS analysis (reference value: 1.7 %); design: scale not given: the % may be the effect or the level left; conditions: at 8 µg/mL
[12] = target: T1, Lanosterol 14-alpha demethylase; assay: Inhibition of CYP51 in Candida albicans SC5314 assessed as ergosterol level at 1 ug/ml by GC-MS analysis (reference value: 98.3 %); design: scale not given: the % may be the effect or the level left; conditions: at 1 µg/mL
[13] = target: T1, Lanosterol 14-alpha demethylase; assay: Inhibition of CYP51 in Candida albicans SC5314 assessed as obtusifoliol level at 2 ug/ml by GC-MS analysis (reference value: 0 %); design: scale not given: the % may be the effect or the level left; conditions: at 2 µg/mL
PC-3 = assay: Cytotoxicity against human PC-3 cells assessed as inhibition of cell growth by MTT assay; type: functional, cell-based
[14] = target: T1, Lanosterol 14-alpha demethylase; assay: Inhibition of CYP51 in Candida albicans SC5314 assessed as eburicol level at 2 ug/ml by GC-MS analysis (reference value: 0 %); design: scale not given: the % may be the effect or the level left; conditions: at 2 µg/mL
[15] = target: T1, Lanosterol 14-alpha demethylase; assay: Inhibition of CYP51 in Candida albicans SC5314 assessed as eburicol level at 1 ug/ml by GC-MS analysis (reference value: 0 %); design: scale not given: the % may be the effect or the level left; conditions: at 1 µg/mL
[16] = target: T1, Lanosterol 14-alpha demethylase; assay: Inhibition of CYP51 in Candida albicans SC5314 assessed as obtusifoliol level at 1 ug/ml by GC-MS analysis (reference value: 0 %); design: scale not given: the % may be the effect or the level left; conditions: at 1 µg/mL
[17] = target: T1, Lanosterol 14-alpha demethylase; assay: Inhibition of CYP51 in Candida albicans SC5314 assessed as lanosterol level at 1 ug/ml by GC-MS analysis (reference value: 1.7 %); design: scale not given: the % may be the effect or the level left; conditions: at 1 µg/mL
[18] = target: T1, Lanosterol 14-alpha demethylase; assay: Inhibition of CYP51 in Candida albicans SC5314 assessed as eburicol level at 4 ug/ml by GC-MS analysis (reference value: 0 %); design: scale not given: the % may be the effect or the level left; conditions: at 4 µg/mL
[19] = target: T1, Lanosterol 14-alpha demethylase; assay: Inhibition of CYP51 in Candida albicans SC5314 assessed as eburicol level at 8 ug/ml by GC-MS analysis (reference value: 0 %); design: scale not given: the % may be the effect or the level left; conditions: at 8 µg/mL
[20] = target: T1, Lanosterol 14-alpha demethylase; assay: Inhibition of CYP51 in Candida albicans SC5314 assessed as obtusifoliol level at 8 ug/ml by GC-MS analysis (reference value: 0 %); design: scale not given: the % may be the effect or the level left; conditions: at 8 µg/mL

T1 sequence (P10613 whole entry): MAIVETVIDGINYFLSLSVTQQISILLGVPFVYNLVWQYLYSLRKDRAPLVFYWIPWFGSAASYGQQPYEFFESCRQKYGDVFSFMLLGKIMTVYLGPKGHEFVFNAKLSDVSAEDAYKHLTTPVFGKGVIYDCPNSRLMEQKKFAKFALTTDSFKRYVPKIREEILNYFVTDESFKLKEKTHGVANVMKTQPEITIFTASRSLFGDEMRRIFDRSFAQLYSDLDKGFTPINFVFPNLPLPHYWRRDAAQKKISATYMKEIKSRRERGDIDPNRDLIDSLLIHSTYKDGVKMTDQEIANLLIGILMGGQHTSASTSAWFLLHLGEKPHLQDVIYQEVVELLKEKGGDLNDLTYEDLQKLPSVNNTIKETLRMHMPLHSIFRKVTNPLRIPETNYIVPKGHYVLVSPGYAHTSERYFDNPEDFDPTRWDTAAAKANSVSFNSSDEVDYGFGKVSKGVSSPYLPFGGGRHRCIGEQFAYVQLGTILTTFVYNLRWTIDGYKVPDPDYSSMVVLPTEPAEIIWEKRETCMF

SMILES	MIC (Candida albicans [1])	MIC (Candida tropicalis)	MIC (Candida parapsilosis)	MIC (Cryptococcus neoformans)	MIC (Candida albicans [2])	MIC (Nakaseomyces glabratus)	MIC (Aspergillus fumigatus)	MIC (Pichia kudriavzevii)	other results
Cc1ccc(C)c([Se]CC(O)(Cn2cncn2)c2ccc(F)cc2F)c1 (stereo unspecified)	1 µg/mL	0.5 µg/mL	0.5 µg/mL	0.25 µg/mL	1 µg/mL	2 µg/mL	2 µg/mL	1 µg/mL	
Cc1ccccc1[Se]C(Cn1ccnc1)c1ccc(Cl)cc1 (stereo unspecified)									MIC (Candida albicans [3]): 0.03 µg/mL (≈ 0.0798 µM); MFC (Candida albicans [4]): 0.25 µg/mL (≈ 0.665 µM); MIC (Candida albicans [4]): 0.02 µg/mL (≈ 0.0532 µM)
OC(C[Se]Cc1ccc(C(F)(F)F)cc1)(Cn1cncn1)c1ccc(F)cc1F (stereo unspecified)	0.03 µg/mL	0.5 µg/mL	0.25 µg/mL	0.5 µg/mL	0.03 µg/mL	4 µg/mL	4 µg/mL	2 µg/mL	
OC(C[Se]Cc1cccc(F)c1)(Cn1cncn1)c1ccc(F)cc1F (stereo unspecified)	0.03 µg/mL	0.25 µg/mL	0.25 µg/mL	2 µg/mL	0.06 µg/mL	2 µg/mL	2 µg/mL	1 µg/mL	
Cc1ccc(C[Se]CC(O)(Cn2cncn2)c2ccc(F)cc2F)cc1 (stereo unspecified)	0.06 µg/mL	1 µg/mL	0.25 µg/mL	1 µg/mL	0.125 µg/mL	2 µg/mL	2 µg/mL	2 µg/mL	
COc1cccc(C[Se]CC(O)(Cn2cncn2)c2ccc(F)cc2F)c1 (stereo unspecified)	0.125 µg/mL	4 µg/mL	0.25 µg/mL	2 µg/mL	0.25 µg/mL	4 µg/mL	4 µg/mL	8 µg/mL	
OC(C[Se]Cc1ccc(F)cc1)(Cn1cncn1)c1ccc(F)cc1F (stereo unspecified)	0.03 µg/mL	0.5 µg/mL	0.25 µg/mL	2 µg/mL	0.06 µg/mL	1 µg/mL	2 µg/mL	1 µg/mL	
COc1cccc([Se]CC(O)(Cn2cncn2)c2ccc(F)cc2F)c1 (stereo unspecified)	0.02 µg/mL	2 µg/mL	0.125 µg/mL	1 µg/mL	0.5 µg/mL	4 µg/mL	8 µg/mL	2 µg/mL	
COc1cccc2c1C(=O)c1c(O)c3c(c(O)c1C2=O)C[C@@](O)(C(=O)CO)C[C@@H]3O[C@H]1C[C@H](N)[C@H](O)[C@H](C)O1 [DOXORUBICIN]									IC50 (HL-60): < 0.125 µM
OC(Cn1cncn1)(Cn1cncn1)c1ccc(F)cc1F [FLUCONAZOLE]		4 µg/mL							Activity [5]: 1.5%; Activity [6]: 15.4%; Activity [7]: 15.7%; IC50 (HL-60): 11.6 µM; Activity [8]: 1.1%; IC50 (MDA-MB-231): 19.2 µM; Activity [9]: 13.5%; Activity [10]: 2.5%; Activity [11]: 14.9%; Activity [12]: 3.9%; Activity [13]: 13.1%; IC50 (PC-3): 16.5 µM; Activity [14]: 68.7%; Activity [15]: 67.9%; Activity [16]: 13.9%; Activity [17]: 14.3%; Activity [18]: 69.6%; Activity [19]: 69.9%; Activity [20]: 14.1%
Clc1ccc(COC(Cn2ccnc2)c2ccc(Cl)cc2Cl)c(Cl)c1 (stereo unspecified) [MICONAZOLE]		1 µg/mL							
